Here are results for three molecules from paper doi:10.1101/2023.12.04.569845, “Identification of 4-(6-((2-methoxyphenyl)amino)pyrazin-2-yl)benzoic acids as CSNK2A inhibitors with antiviral activity and improved selectivity over PIM3” (bioRxiv, 2023).

Each structure is given as a SMILES string. Where two headings read alike, the source gives them in different places.

Among the targets are BRD4 (Homo sapiens, UniProt O60885); CAMK1D (Homo sapiens, UniProt Q8IU85); CSNK1E (Homo sapiens, UniProt P49674); FES (Homo sapiens, UniProt P07332).
What all share (experiment): biochemical
Common to all, as to set-up: Thermal shift (DSF, SYPRO Orange) Tm shift of recombinant kinase domains at 10 uM compound

In the next assay the target is T1, BMX (Homo sapiens, UniProt P51813).
T1 sequence (P51813 1-675): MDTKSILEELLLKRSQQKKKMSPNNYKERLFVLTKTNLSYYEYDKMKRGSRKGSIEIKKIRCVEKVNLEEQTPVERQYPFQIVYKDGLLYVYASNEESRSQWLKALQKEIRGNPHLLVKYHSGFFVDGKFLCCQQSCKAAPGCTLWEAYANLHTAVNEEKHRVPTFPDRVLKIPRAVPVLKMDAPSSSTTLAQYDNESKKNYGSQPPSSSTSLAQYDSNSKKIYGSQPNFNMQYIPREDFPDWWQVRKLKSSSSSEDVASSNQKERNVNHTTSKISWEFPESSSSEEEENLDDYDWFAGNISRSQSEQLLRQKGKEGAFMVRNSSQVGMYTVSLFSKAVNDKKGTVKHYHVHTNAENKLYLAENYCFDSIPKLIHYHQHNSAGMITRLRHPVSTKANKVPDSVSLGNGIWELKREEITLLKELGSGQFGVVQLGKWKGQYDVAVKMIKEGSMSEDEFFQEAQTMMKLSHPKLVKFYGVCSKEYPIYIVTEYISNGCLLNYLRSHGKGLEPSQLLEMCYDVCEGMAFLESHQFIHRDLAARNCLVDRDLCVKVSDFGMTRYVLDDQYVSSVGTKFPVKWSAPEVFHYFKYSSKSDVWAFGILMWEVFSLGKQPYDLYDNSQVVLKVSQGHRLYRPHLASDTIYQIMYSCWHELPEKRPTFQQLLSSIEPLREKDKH

In the next assay the target is T2, JNK1 (Homo sapiens, UniProt P45983).
T2 construct: gene MAPK8

The next assay deals with T3, NEK2 (Homo sapiens, UniProt P51955).
T3 sequence (P51955 1-445): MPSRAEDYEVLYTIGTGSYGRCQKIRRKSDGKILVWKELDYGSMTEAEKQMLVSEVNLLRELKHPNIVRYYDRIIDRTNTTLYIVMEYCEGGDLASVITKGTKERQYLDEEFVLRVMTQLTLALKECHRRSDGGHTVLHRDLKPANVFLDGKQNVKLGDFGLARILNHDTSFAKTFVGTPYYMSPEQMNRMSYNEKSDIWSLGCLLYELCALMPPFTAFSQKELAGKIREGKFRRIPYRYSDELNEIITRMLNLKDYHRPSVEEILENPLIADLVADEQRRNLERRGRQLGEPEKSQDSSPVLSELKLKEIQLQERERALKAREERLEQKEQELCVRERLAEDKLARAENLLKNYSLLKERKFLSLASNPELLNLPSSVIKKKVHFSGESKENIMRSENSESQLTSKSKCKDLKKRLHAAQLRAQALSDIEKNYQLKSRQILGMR

The target in a further assay is T4, ULK1 (Homo sapiens, UniProt O75385).
T4 sequence (O75385 1-1050): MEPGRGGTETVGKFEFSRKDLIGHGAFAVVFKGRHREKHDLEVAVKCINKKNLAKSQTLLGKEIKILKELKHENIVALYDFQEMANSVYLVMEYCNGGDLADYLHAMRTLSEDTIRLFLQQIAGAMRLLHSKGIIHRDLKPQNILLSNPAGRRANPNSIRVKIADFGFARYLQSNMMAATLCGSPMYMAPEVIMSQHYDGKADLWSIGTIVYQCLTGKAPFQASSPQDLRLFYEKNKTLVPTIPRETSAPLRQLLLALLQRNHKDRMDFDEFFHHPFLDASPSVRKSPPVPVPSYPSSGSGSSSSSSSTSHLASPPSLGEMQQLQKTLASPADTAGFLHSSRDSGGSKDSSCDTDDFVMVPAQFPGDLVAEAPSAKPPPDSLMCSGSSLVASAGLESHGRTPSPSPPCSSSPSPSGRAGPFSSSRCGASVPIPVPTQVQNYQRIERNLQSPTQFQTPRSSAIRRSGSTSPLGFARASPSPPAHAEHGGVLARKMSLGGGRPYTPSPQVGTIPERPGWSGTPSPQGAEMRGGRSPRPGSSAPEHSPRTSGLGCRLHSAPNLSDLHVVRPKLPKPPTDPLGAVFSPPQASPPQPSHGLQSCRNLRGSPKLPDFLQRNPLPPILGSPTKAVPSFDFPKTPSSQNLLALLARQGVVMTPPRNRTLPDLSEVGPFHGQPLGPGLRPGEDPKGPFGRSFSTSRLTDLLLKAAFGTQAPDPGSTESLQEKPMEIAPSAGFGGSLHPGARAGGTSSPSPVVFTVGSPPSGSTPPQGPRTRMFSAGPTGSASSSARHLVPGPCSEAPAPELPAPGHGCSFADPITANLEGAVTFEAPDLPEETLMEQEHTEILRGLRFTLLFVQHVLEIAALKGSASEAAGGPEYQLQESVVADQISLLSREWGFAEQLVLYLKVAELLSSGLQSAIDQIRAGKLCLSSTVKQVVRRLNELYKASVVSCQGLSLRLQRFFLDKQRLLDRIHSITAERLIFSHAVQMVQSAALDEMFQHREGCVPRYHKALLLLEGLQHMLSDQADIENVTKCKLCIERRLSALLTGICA

T2 sequence (P45983 whole entry): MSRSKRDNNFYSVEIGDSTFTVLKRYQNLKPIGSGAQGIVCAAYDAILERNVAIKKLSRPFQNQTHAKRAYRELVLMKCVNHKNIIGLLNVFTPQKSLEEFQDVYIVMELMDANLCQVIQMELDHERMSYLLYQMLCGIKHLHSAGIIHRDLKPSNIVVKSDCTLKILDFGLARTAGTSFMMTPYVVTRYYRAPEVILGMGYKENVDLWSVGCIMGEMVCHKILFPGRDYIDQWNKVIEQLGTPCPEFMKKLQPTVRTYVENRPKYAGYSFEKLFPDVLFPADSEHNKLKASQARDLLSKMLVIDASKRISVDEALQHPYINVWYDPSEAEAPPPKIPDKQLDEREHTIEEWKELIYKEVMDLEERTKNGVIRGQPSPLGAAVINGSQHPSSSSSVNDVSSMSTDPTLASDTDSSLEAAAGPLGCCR
CSNK1E, sequence (P49674 whole entry): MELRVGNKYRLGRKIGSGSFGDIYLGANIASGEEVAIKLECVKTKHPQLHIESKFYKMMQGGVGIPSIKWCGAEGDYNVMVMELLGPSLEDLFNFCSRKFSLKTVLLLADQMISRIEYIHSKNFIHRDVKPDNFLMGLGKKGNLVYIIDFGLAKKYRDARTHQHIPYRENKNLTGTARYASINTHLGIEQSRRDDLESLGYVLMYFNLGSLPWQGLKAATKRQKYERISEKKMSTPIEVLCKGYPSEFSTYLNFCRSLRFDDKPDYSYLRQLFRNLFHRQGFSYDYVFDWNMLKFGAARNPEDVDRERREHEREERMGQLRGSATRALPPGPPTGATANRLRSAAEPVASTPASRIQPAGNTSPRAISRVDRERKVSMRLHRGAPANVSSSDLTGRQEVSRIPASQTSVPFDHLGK
CAMK1D, sequence (Q8IU85 whole entry): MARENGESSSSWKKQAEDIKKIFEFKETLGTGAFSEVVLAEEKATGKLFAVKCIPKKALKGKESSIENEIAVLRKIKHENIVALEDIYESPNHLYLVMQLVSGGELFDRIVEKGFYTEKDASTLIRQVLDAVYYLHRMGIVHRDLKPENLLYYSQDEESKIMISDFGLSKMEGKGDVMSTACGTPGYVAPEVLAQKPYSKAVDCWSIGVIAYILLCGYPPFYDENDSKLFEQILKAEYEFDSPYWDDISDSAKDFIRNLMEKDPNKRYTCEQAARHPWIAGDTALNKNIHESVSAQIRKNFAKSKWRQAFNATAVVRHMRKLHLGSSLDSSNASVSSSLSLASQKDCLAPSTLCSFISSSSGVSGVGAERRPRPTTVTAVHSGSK
FES, sequence (P07332 whole entry): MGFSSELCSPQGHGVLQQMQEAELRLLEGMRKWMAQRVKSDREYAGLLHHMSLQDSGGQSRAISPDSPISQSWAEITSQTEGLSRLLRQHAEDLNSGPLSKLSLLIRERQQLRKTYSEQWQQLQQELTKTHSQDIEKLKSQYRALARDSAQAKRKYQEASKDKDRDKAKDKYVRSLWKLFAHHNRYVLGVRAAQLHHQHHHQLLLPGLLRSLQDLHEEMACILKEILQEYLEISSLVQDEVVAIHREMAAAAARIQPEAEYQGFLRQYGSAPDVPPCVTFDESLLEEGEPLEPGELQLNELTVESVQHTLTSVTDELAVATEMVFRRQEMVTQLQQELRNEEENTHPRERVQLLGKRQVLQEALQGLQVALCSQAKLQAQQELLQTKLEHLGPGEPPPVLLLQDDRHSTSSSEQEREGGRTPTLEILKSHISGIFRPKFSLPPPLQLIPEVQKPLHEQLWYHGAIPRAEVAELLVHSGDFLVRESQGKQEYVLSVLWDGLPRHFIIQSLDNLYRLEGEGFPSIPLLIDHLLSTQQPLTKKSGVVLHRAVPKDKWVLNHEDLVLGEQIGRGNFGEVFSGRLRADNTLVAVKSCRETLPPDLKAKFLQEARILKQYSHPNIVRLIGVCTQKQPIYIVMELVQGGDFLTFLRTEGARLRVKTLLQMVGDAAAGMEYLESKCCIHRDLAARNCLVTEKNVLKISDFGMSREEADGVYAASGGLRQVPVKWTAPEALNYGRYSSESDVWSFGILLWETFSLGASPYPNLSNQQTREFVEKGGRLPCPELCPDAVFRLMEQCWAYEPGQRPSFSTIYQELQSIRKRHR

Turning to `CC(C)Oc1ccc2ccn(-c3cncc(-c4ccc(C(=O)O)cc4)n3)c2c1` [6c], the ΔTm at 10 µM on BMX (read-out: 6c) was 2 °C; on BRD4 (read-out: 6c), 2 °C; at CAMK1D (read-out: 6c), 0 °C; at CSNK1E (read-out: 6c) it was 3 °C; on FES (read-out: 6c), -1 °C; on JNK1 (read-out: 6c), 3 °C. Besides, the results for the ΔTm at 10 µM on NEK2 (read-out: 6c) and at ULK1 (read-out: 6c) were -4 °C and 2 °C, respectively.

Turning to `COc1ccc(OC(C)C)cc1Nc1cncc(-c2ccc(C(=O)O)cc2)n1` [7c], the ΔTm at 10 µM came out at 1 °C on BMX (read-out: 7c); 1 °C on BRD4 (read-out: 7c); 0 °C at CAMK1D (read-out: 7c); 1 °C at CSNK1E (read-out: 7c); 0 °C on FES (read-out: 7c); 1 °C at JNK1 (read-out: 7c). In addition, the ΔTm at 10 µM is -1 °C at NEK2 (read-out: 7c) and 1 °C on ULK1 (read-out: 7c).

`CC(C)Nc1ccc2cnn(-c3cncc(-c4ccc(C(=O)O)cc4)n3)c2c1` [compound 2, 2]: the ΔTm at 10 µM at BMX (read-out: 2) is 3 °C; at BRD4 (read-out: 2), 2 °C; on CAMK1D (read-out: 2), 2 °C; at CSNK1E (read-out: 2), 2 °C; on FES (read-out: 2) it was 2 °C; on JNK1 (read-out: 2), 6 °C. Besides, the ΔTm at 10 µM at NEK2 (read-out: 2) is -2 °C; at ULK1 (read-out: 2) it was 3 °C.
